The values below come from DBAASP.

In brackets after ≈: the same amount, converted by molar mass.

Among the test systems are Escherichia coli JW0013; Escherichia coli; Listeria innocua; Micrococcus luteus A270.
Assay in all cases: ≥ marks a high value that may be exact or a test limit, other limits are often not marked, values filed in µg/mL are converted to µM
In assay [1] the test system is Candida albicans ATCC 2002.
In assay [2] the test system is Escherichia coli ATCC 25922.
Assay [3] concerns Staphylococcus aureus ATCC 2592.
Assay [4] deals with Micrococcus luteus ATCC 4698.
Assay [5] has as its system Candida albicans NCPF 1467.
The test system of assay [6] is Escherichia coli NCTC 10418.
Assay [7] concerns Staphylococcus aureus NCTC 10788.
For assay [8], the system named is Escherichia coli DH5alpha.
Assay [9] deals with Staphylococcus aureus ATCC 6538.
Assay [10] has as its system Staphylococcus epidermidis ATCC 12228.
In assay [11] the test system is Clavibacter michiganensis subsp. michiganensis DSM 46294.
For assay [12], the system named is Pectobacterium carotovorum subsp. carotovorum DSM 30168.
For assay [13], the system named is Pseudomonas corrugata DSM 7228.
Assay [14] relates to Pseudomonas syringae pv. syringae DSM 10604.
The subject of assay [15] is Pseudomonas syringae pv. tomato DC3000.
Assay [16] relates to Xanthomonas vesicatoria DSM 50861.
For assay [17], the system named is Klebsiella pneumoniae ATCC 10031.
The subject of assay [18] is Salmonella enterica subsp. enterica serovar Typhimurium ATCC 14028.

The MIC is the least concentration at which growth counts as inhibited. Higher therefore signals a need for much substance. As to `CC[C@H](C)[C@H](NC(=O)CNC(=O)[C@H](Cc1c[nH]c2ccccc12)NC(=O)[C@H](C)NC(=O)[C@H](CCCCN)NC(=O)[C@H](C)N)C(=O)NCC(=O)NCC(=O)N[C@@H](Cc1cnc[nH]1)C(=O)N[C@H](C(=O)N[C@H](C(=O)NCC(=O)N[C@@H](CCC(N)=O)C(=O)N[C@H](C(=O)N[C@H](C(=O)NCC(=O)N[C@H](C(=O)N[C@@H](CCCN=C(N)N)C(=O)N[C@H](C(=O)N[C@@H](CCCN=C(N)N)C(=O)NCC(=O)N[C@@H](CC(C)C)C(=O)N[C@@H](CS)C(=O)NCC(=O)N[C@@H](CC(N)=O)C(=O)N[C@H](C(=O)O)C(C)C)[C@@H](C)CC)C(C)C)C(C)C)[C@@H](C)CC)[C@@H](C)CC)C(C)C` [AKAWGIGGHVIGQIVGVRIRGLCGNV], the MIC is 19 µM (≈ 50 µg/mL) in assay [1], 9.5 µM (≈ 25 µg/mL) in [2] and 4.79 µM (≈ 12.6 µg/mL) in [3].

`NCCCC[C@@H]1NC(=O)[C@H](Cc2c[nH]c3ccccc23)NC(=O)CNC(=O)CNC(=O)[C@@H](N)CSSC[C@@H](C(=O)O)NC(=O)[C@H](CCCN=C(N)N)NC(=O)[C@H](CCCCN)NC(=O)[C@H](CCCN=C(N)N)NC1=O` [CGGWKRKRC] yielded an MIC in [4] of 0.8 µM (≈ 0.873 µg/mL).

As for `CC[C@H](C)[C@H](NC(=O)CNC(=O)[C@@H](NC(=O)[C@H](C)NC(=O)[C@@H](NC(=O)[C@H](Cc1cnc[nH]1)NC(=O)[C@@H]1CCCN1C(=O)[C@@H](NC(=O)[C@H](CCSC)NC(=O)[C@H](CO)NC(=O)[C@H](Cc1ccccc1)NC(=O)[C@@H](N)Cc1ccccc1)[C@@H](C)CC)[C@@H](C)CC)[C@@H](C)O)C(=O)N[C@@H](C)C(=O)N[C@@H](CO)C(=O)N[C@@H](CC(C)C)C(=O)N[C@H](C(=O)N[C@@H](CCCCN)C(=O)N[C@@H](CC(N)=O)C(=O)N[C@@H](CC(C)C)C(N)=O)C(C)C` [FFSMIPHIATGIASLVKNL], the MIC was 31.1 µM (≈ 64 µg/mL) in assay [5], not below 249 µM in assay [6] and 15.5 µM (≈ 32 µg/mL) in assay [7].

With `CC[C@H](C)[C@H](NC(=O)[C@H](C)NC(=O)[C@H](CO)NC(=O)[C@@H](NC(=O)[C@H](CC(C)C)NC(=O)CNC(=O)[C@H](C)NC(=O)[C@@H](NC(=O)[C@@H](NC(=O)[C@H](CO)NC(=O)[C@@H]1CCCN1C(=O)[C@@H](NC(=O)[C@H](CC(C)C)NC(=O)[C@H](CO)NC(=O)[C@H](Cc1ccccc1)NC(=O)[C@H](CC(C)C)NC(=O)[C@@H](N)Cc1ccccc1)[C@@H](C)CC)C(C)C)[C@@H](C)CC)C(C)C)C(=O)N[C@@H](CCCN=C(N)N)C(=O)N[C@@H](CC(N)=O)C(N)=O` [FLFSLIPSVIAGLVSAIRN], the minimum inhibitory concentration (MIC) in assay [5] was 15.9 µM (≈ 32 µg/mL); in [6], not below 254 µM; in [7] it was 7.93 µM (≈ 16 µg/mL).

For `CC(C)C[C@H](NC(=O)[C@H](CC(C)C)NC(=O)[C@H](CCCCN)NC(=O)[C@H](CO)NC(=O)[C@@H](NC(=O)[C@H](C)NC(=O)[C@H](CCCCN)NC(=O)[C@H](Cc1ccccc1)NC(=O)[C@H](CC(C)C)NC(=O)[C@H](C)NC(=O)CNC(=O)[C@H](CC(C)C)NC(=O)[C@@H](N)Cc1ccccc1)C(C)C)C(=O)O` [FLGALFKAVSKLL], the MIC in assay [8] came out at 25.6 µM (≈ 36 µg/mL); in [4], 4.98 µM (≈ 7 µg/mL); in assay [9], 8.53 µM (≈ 12 µg/mL); in [10], 15.6 µM (≈ 22 µg/mL).

Consider `CC[C@H](C)[C@H](NC(=O)CNC(=O)CNC(=O)[C@H](C)NC(=O)[C@@H](NC(=O)[C@H](Cc1cnc[nH]1)NC(=O)[C@@H]1CCCN1C(=O)[C@@H](NC(=O)[C@H](CCSC)NC(=O)[C@H](CO)NC(=O)[C@H](CC(C)C)NC(=O)[C@@H](N)Cc1ccccc1)[C@@H](C)CC)[C@@H](C)CC)C(=O)N[C@@H](C)C(=O)N[C@@H](CO)C(=O)N[C@@H](CC(C)C)C(=O)N[C@H](C(=O)N[C@@H](CCCCN)C(=O)N[C@@H](CC(N)=O)C(=O)N[C@@H](CC(C)C)C(N)=O)C(C)C` [FLSMIPHIAGGIASLVKNL], for which the MIC is not below 32.3 µM in [5], not below 258 µM in [6] and 16.2 µM (≈ 32 µg/mL) in assay [7].

On to `CSCC[C@H](NC(=O)CN)C(=O)N[C@@H](CCCN=C(N)N)C(=O)N1CCC[C@H]1C(=O)N1CCC[C@H]1C(=O)N[C@@H](Cc1c[nH]c2ccccc12)C(=O)N[C@@H](Cc1ccccc1)C(N)=O` [GMRPPWF], for which the MIC in [5] was not below 144 µM; in assay [6], not below 575 µM; in [7] it was not below 288 µM.

As to `CC(C)C[C@H](NC(=O)[C@H](C)NC(=O)[C@H](CC(C)C)NC(=O)[C@H](CCCN=C(N)N)NC(=O)[C@H](CCCN=C(N)N)NC(=O)[C@@H](N)CCCCN)C(=O)N[C@@H](Cc1ccccc1)C(=O)N[C@@H](CCCN=C(N)N)C(=O)N[C@@H](CC(C)C)C(=O)N[C@@H](Cc1ccccc1)C(=O)N[C@@H](CCCN=C(N)N)C(=O)N[C@@H](CC(C)C)C(=O)N[C@@H](C)C(=O)N[C@@H](CC(C)C)C(=O)N[C@@H](CCCCN)C(=O)N[C@@H](CC(C)C)C(=O)N[C@H](C(=O)N[C@@H](CC(C)C)C(=O)N[C@@H](CCCCN)C(=O)N[C@@H](CCCCN)C(N)=O)C(C)C` [KRRLALFRLFRLALKLVLKK], the MIC worked out at 1.01 µM (≈ 2.5 µg/mL) in assay [11]; 4.03 µM (≈ 10 µg/mL) in assay [12]; 4.03 µM (≈ 10 µg/mL) in [13]; 4.03 µM (≈ 10 µg/mL) in assay [14]; 1.01 µM (≈ 2.5 µg/mL) in assay [15]; 1.01 µM (≈ 2.5 µg/mL) in [16].

For the molecule `CC[C@H](C)[C@@H]1NC(=O)[C@H](CCCCN)NC(=O)[C@@H](NC(=O)[C@@H](NC(=O)[C@@H](NC(=O)[C@@H](NC(=O)[C@@H]2CCCN2C(=O)[C@H](CC(C)C)NC(=O)[C@H](Cc2ccccc2)NC(=O)[C@H](CC(N)=O)NC(=O)[C@H](C)NC(=O)[C@H](C)NC(=O)[C@H](CC(C)C)NC(=O)CNC(=O)[C@H](C)NC(=O)[C@H](CC(C)C)NC(=O)[C@@H](N)CC(C)C)[C@@H](C)O)[C@@H](C)CC)[C@@H](C)CC)CSSC[C@@H](C(=O)O)NC(=O)[C@H](CCCCN)NC(=O)[C@H](Cc2ccc(O)cc2)NC(=O)[C@H](CO)NC1=O` [LLAGLAANFLPTIICKISYKC], the MIC is not below 44.4 µM in assay [8], not below 44.4 µM in assay [17] and more than 44.4 µM in assay [18].

Turning to `CC[C@H](C)[C@H](NC(=O)[C@H](CCCN=C(N)N)NC(=O)[C@H](CCCN=C(N)N)NC(=O)[C@@H]1CCCN1C(=O)[C@@H]1CCCN1C(=O)[C@H](CCCN=C(N)N)NC(=O)[C@@H]1CCCN1C(=O)[C@H](CCCN=C(N)N)NC(=O)[C@@H]1CCCN1C(=O)[C@H](CC(C)C)NC(=O)[C@H](Cc1ccc(O)cc1)NC(=O)[C@H](CC(=O)O)NC(=O)[C@@H]1CCCN1C(=O)[C@H](CCCCN)NC(=O)[C@H](CC(=O)O)NC(=O)[C@@H](N)C(C)C)C(=O)N[C@@H](Cc1ccc(O)cc1)C(=O)N[C@@H](CC(N)=O)C(=O)N[C@@H](CCCN=C(N)N)C(N)=O` [VDKPDYLPRPRPPRRIYNR], the MIC with Escherichia coli JW0013 was 1.37 µM (≈ 3.3 µg/mL).

Regarding `CC[C@H](C)[C@H](NC(=O)[C@H](CCCN=C(N)N)NC(=O)[C@H](CCCN=C(N)N)NC(=O)[C@@H]1CCCN1C(=O)[C@@H]1CCCN1C(=O)[C@H](CCCN=C(N)N)NC(=O)[C@@H]1CCCN1C(=O)[C@H](CCCN=C(N)N)NC(=O)[C@@H]1CCCN1C(=O)[C@H](CC(C)C)NC(=O)[C@H](Cc1ccc(O)cc1)NC(=O)[C@H](CCCCN)NC(=O)[C@@H]1CCCN1C(=O)[C@H](CCCCN)NC(=O)[C@H](CC(=O)O)NC(=O)[C@@H](N)C(C)C)C(=O)N[C@@H](Cc1ccc(O)cc1)C(=O)N[C@@H](CC(N)=O)C(=O)N[C@@H](CCCN=C(N)N)C(N)=O` [VDKPKYLPRPRPPRRIYNR], the MIC with Escherichia coli JW0013 turned out to be 1.36 µM (≈ 3.3 µg/mL). This MIC and that of the molecule before are within 1.5-fold of each other.

Turning to `CC(C)C[C@H](NC(=O)[C@H](CC(C)C)NC(=O)[C@H](CO)NC(=O)[C@H](Cc1cnc[nH]1)NC(=O)[C@H](CO)NC(=O)[C@H](CC(C)C)NC(=O)[C@H](CC(C)C)NC(=O)[C@H](CCCCN)NC(=O)[C@H](Cc1ccccc1)NC(=O)[C@H](CC(N)=O)NC(=O)[C@@H](N)C(C)C)C(=O)O` [VNFKLLSHSLL], the MIC in the assay on Escherichia coli was 98 µM (≈ 125 µg/mL); against Listeria innocua, 24 µM (≈ 30.5 µg/mL); with Micrococcus luteus A270 it was 24 µM (≈ 30.5 µg/mL).
